These results are taken from patent US20240351988A1, “ARYL HYDROCARBON RECEPTOR MODULATORS AND THEIR USE IN THE TREATMENT OF DISEASES AND DISORDERS” (Allianthera (Suzhou) Biopharmaceutical Co., Ltd., priority 2021, published 2024).

For assay [1], the system named is AHR-regulated gene CYP1A1 in human monocytic U937 cell line. In words: AHR-regulated CYP1A1 expression in U937 cells (qPCR, kynurenic acid stimulated). Type of assay: cell-based. The settings on record: U-937, 200 μM KA, 16 hours, CYP1A1 vs GAPDH, read-out: Cyp ANATAG mode assay: IC50. The method, then:
To evaluate the AHR inhibitory activity of the test compounds, quantitative PCR analysis was used to determine expression level of the AHR-regulated gene CYP1A1 in a human monocytic U937 cell line upon stimulation of 200 μM kynurenic acid (KA) in the absence or presence of AHR inhibitor. U937 cells were seeded at a concentration of 5×10^5 cells/well in 200 μL of growth medium in 96-well cell culture microplates. CYP1A1 expression was induced with 200 μM KA (positive control) in the absence or presence of the test compounds for 16 hours. Human U937 cells were typically incubated with eight different concentrations of test compounds (typical dilution: […], 3.2 nM, 16 nM, 80 nM, 400 nM, 2 μM, 10 μM) and analyzed in duplicate on the same cell culture microplate. After stimulation, the media was removed, the cell RNA was isolated using RNeasy Mini Kit (Qiagen, 74104) and reverse-transcribed to cDNA using PrimeScript RT reagent Kit (Perfect Real Time) (TaKaRa, RR037A). Unstimulated cells were used as the negative control. Taqman probes for human CYP1A1 (Hs01054797_g1) and human GAPDH (Hs02786624_g1) were used to analyze fold expression of CYP1A1 of GAPDH.
For orientation: Quantitative PCR measures a nucleic acid by following its amplification.

The target in assay [2] is T1, Human Aryl Hydrocarbon Receptor (AhR) (Homo sapiens, UniProt P35869).
T1 construct: purchased INDIGO Bioscience #1B06001-32; host or cells: AhR Reporter Cell (kit's proprietary reporter cells)
T1 sequence (P35869 11-848): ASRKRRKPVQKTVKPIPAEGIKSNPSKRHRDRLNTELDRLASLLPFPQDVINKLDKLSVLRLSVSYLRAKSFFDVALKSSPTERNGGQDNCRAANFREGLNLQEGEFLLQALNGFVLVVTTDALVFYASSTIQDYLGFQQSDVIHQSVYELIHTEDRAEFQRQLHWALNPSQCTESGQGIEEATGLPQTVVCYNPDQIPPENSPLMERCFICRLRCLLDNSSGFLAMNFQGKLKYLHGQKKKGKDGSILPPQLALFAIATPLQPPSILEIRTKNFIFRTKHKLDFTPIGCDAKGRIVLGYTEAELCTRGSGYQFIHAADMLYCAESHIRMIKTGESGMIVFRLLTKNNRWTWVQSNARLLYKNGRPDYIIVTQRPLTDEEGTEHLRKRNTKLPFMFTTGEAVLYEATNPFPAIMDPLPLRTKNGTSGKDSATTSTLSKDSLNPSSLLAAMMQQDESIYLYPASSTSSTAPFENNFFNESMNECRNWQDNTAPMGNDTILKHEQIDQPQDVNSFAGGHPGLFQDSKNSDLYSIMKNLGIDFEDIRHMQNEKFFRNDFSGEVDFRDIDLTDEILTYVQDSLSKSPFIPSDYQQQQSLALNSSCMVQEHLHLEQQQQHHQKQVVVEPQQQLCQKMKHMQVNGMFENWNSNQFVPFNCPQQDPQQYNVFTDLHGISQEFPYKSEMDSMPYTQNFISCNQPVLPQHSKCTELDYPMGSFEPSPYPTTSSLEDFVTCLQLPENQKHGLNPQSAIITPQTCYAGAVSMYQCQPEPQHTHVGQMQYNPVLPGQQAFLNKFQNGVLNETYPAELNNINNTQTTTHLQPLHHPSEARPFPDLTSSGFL
Put plainly: AHR antagonist reporter assay in human cell line (INDIGO AhR Reporter Assay System, kynurenic acid activated). Type of assay: cell-based. The settings on record: 200 μM kynurenic acid, 24 hours, luciferase; read-out: AhR Reporter Assay KA Antagonist Mode: IC50. The essentials: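 AhR reporter cells activated with 200 μM kynurenic acid and exposed to compound dilution series in duplicate for 24 h. Firefly luciferase readout, normalized to positive (literature antagonists or unactivated cells) and negative controls.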
(In general: Reporter assays use an easily measured gene product as a stand-in for the process of interest.)

For a further assay, the system named is CT26 tumor cells. Put plainly: Anti-tumor activity in mice bearing CT26 tumors. Type of assay: in vivo, BALB/C mouse. As to conditions: CT26, female BALB/C; compound 10 mg/kg orally 16 days; anti PD-1 10 mg/kg i.p. twice every week; FIG. 1. On the procedure: Female BALB/C mouse was inoculated subcutaneously on the right flank with CT26 tumor cells (3×10^5) in 0.1 ml of RPMI 1640 Medium without serum for tumor development. Mice were randomized into 4 groups according to body weight on Day 4 after inoculation. The tumor-bearing mice were treated with Vehicle, anti PD-1 antibody (RMP1-14, BioXCell Catalog No. BP0146), a AHR antagonist compound as disclosed herein and a combination therapy of a AHR antagonist compound as disclosed herein and the anti PD-1 (or established treatment). The AHR antagonist compound was dosed orally at for example 10 mg/kg alone or in combination with established treatment for 16 days. When the established treatment was PD-1 antibody, the antibody was administered via intraperitoneal injection at 10 mg/kg, twice every week.

Structures are written as SMILES. pIC50: −log10 of the molar value.

In general, pIC50 refers to the IC50 on a negative log10 scale, so that one unit is a factor of ten.

Take `CNC(=O)C(C)(C)NC(=O)c1cc(-c2ccc(C(F)(F)F)cc2)nn(-c2cnn(C)c2)c1=O` [Compound 173]: the pIC50 in assay [1] and in assay [2] was greater than 7.00 each time.
Take `Cc1nn(C)c2cc(-c3cc(C(=O)N[C@@H](C)CO)c(=O)n(-c4cnn(C)c4)n3)ccc12` [Compound 175]: the negative-log IC50 (pIC50) in assay [1] was 6.40 to 7.00; in assay [2] it was greater than 7.00.
The corresponding values for `Cc1nn(C)c2cc(-c3cc(C(=O)N[C@@H](C)C(=O)N(C)C)c(=O)n(-c4cnn(C)c4)n3)ccc12` [Compound 176] are 6.40 to 7.00 and greater than 7.00.
For `C[C@H](NC(=O)c1cc(-c2ccc(-c3ccc(Cl)cc3)nc2)nn(-c2cnn(C)c2)c1=O)C(=O)N(C)C` [Compound 177], the pIC50 in assay [1] and in assay [2] was greater than 7.00 in each case.
As for `CNC(=O)[C@H](C)NC(=O)c1cc(-c2cnc(-c3ccc(Cl)cc3)nc2)nn(-c2cnn(C)c2)c1=O` [Compound 181], the values for the negative-log IC50 (pIC50) in assay [1] and in assay [2] were 6.40 to 7.00 and greater than 7.00, respectively.
The corresponding values for `CNC(=O)[C@H](C)NC(=O)c1cc(-c2ccc(-c3ccc(Cl)cc3)nc2)nn(-c2cnn(C)c2)c1=O` [Compound 183] are greater than 7.00 and greater than 7.00.
The corresponding values for `C[C@@H](CO)NC(=O)c1cc(-c2ccc(-c3ccccc3)nc2)nn(-c2cnn(C)c2)c1=O` [Compound 185] are greater than 7.00 and greater than 7.00.
The corresponding values for `C[C@@H](CO)NC(=O)c1cc(-c2cnc(-c3ccc(F)cc3)nc2)nn(-c2cnn(C)c2)c1=O` [Compound 186] are greater than 7.00 and greater than 7.00.
Take `C[C@@H](CO)NC(=O)c1cc(-c2ccc(-c3cccc(F)c3)nc2)nn(-c2cnn(C)c2)c1=O` [Compound 191]: the pIC50 in assay [1] and in assay [2] was greater than 7.00 each time.
On to `C[C@@H](CO)NC(=O)c1cc(-c2ccc(-c3ccccc3F)nc2)nn(-c2cnn(C)c2)c1=O` [Compound 192], for which the negative logarithm of the IC50 (pIC50) in assay [1] and in assay [2] was greater than 7.00 each time.
As for `C[C@@H](CO)NC(=O)c1cc(-c2cnc(-c3cccc(F)c3)nc2)nn(-c2cnn(C)c2)c1=O` [Compound 193], the pIC50 in assay [1] and in assay [2] was greater than 7.00 throughout.
Consider `C[C@@H](CO)NC(=O)c1cc(-c2cnc(-c3ccccc3F)nc2)nn(-c2cnn(C)c2)c1=O` [Compound 194], for which the negative-log IC50 (pIC50) in assay [1] and in assay [2] was greater than 7.00 throughout.
As for `C[C@@H](CO)NC(=O)c1cc(-c2ccc(-c3ccc(F)nc3)nc2)nn(-c2cnn(C)c2)c1=O` [Compound 195], the negative-log IC50 (pIC50) in assay [1] and in assay [2] was greater than 7.00 throughout.
Consider `C[C@@H](CO)NC(=O)c1cc(-c2ccc(C3CCOCC3)cc2)nn(-c2cnn(C)c2)c1=O` [Compound 197], for which the pIC50 in assay [1] and in assay [2] was 6.40 to 7.00 each time.
With `C[C@@H](CO)NC(=O)c1cc(-c2ccc(C3CCCCC3)cc2)nn(-c2cnn(C)c2)c1=O` [Compound 198], the pIC50 in assay [1] and in assay [2] was greater than 7.00 in each case.
Consider `C[C@@H](CO)NC(=O)c1cc(-c2cnc(-c3ccc(F)cc3)nc2)nc(-c2cnn(C)c2)n1` [Compound 199], for which the negative logarithm of the IC50 (pIC50) in assay [1] and in assay [2] was greater than 7.00 in each case.
On to `C[C@@H](CO)n1cnc2c(-c3cnn(C)c3)nc(-c3cnc(-c4ccc(F)cc4)nc3)cc2c1=O` [Compound 200], for which the pIC50 in assay [1] and in assay [2] was greater than 7.00 each time.
`CCc1ccc(-c2cc(C(=O)N[C@@H](C)CO)c(=O)n(-c3cnn(C)c3)n2)cc1` [Compound 201]: the pIC50 in assay [1] and in assay [2] was greater than 7.00 each time.
On to `CC(C)c1ccc(-c2cc(C(=O)N[C@@H](C)CO)c(=O)n(-c3cnn(C)c3)n2)cc1` [Compound 202], for which the negative-log IC50 (pIC50) in assay [1] and in assay [2] was greater than 7.00 throughout.
`C[C@@H](CO)NC(=O)c1cc(-c2ccc(C(C)(C)C)cc2)nn(-c2cnn(C)c2)c1=O` [Compound 203]: the pIC50 in assay [1] and in assay [2] was greater than 7.00 each time.
Consider `CCc1ccc(-c2cc(C(=O)N[C@@H](C)COC)c(=O)n(-c3cnn(C)c3)n2)cc1` [Compound 204], for which the pIC50 in assay [1] was greater than 7.00; in assay [2], 6.40 to 7.00.
Regarding `COC[C@H](C)NC(=O)c1cc(-c2ccc(C(C)C)cc2)nn(-c2cnn(C)c2)c1=O` [Compound 206], the negative logarithm of the IC50 (pIC50) in assay [1] and in assay [2] was greater than 7.00 throughout.
Turning to `C[C@@H](CO)NC(=O)c1cc(N2CCC(c3ccc(F)cc3)CC2)nn(-c2cnn(C)c2)c1=O` [Compound 207], the figures for the pIC50 in assay [1] and in assay [2] were 6.40 to 7.00 and less than 6.40, respectively.
The corresponding values for `C[C@@H](CO)NC(=O)c1cc(N2CCN(c3ccc(F)cc3)CC2)nn(-c2cnn(C)c2)c1=O` [Compound 208] are greater than 7.00 and greater than 7.00.
As for `C[C@@H](CO)NC(=O)c1cc(-c2ccc(-c3ccc(F)cc3)nc2)nn(-c2cnn(C)c2)c1=O` [example 184], the “tumor volume compared with Vehicle group” value with CT26 tumor cells is “significantly reduced tumor volume”. For the same compound, the pIC50 in assay [1] and in assay [2] was greater than 7.00 each time.
